In the experiment the target is SARS-CoV-2 3CL-protease (Severe acute respiratory syndrome coronavirus 2, UniProt P0DTD1). Put plainly: SARS-CoV-2 3C-Like (3CL) Protease Fluorescence Assay (FRET). In kind it is biochemical. Conditions: SARS-CoV-2 3CL-protease 10 nM, 30 min preincubation at RT, substrate 40 μM.

pIC50: −log10 of the molar value.

For `CN(C(=O)c1nc2cccnc2[nH]1)[C@@H](CC1CC1)C(=O)N1C[C@]2(C[C@H]1C#N)C(=O)Nc1ccc(Cl)cc12` [Example 463], the pIC50 (commonly −log10 of the IC50, conventionally taken in molar units) was greater than 7.00.
The compound `CC(C)C[C@@H](C(=O)N1C[C@]2(C[C@H]1C#N)C(=O)Nc1ccccc12)N(C)C(=O)c1cc2cccnc2[nH]1` [Example 464] gave a pIC50 greater than 7.00.
`Cc1ccc2cc(C(=O)N(C)[C@@H](CC(C)C)C(=O)N3C[C@]4(C[C@H]3C#N)C(=O)Nc3ccccc34)[nH]c2n1` [Example 465] showed a pIC50 greater than 7.00.
Next, `CN(C(=O)c1cc2cccnc2[nH]1)[C@@H](CC(C)(C)F)C(=O)N1C[C@]2(C[C@H]1C#N)C(=O)Nc1ccccc12` [Example 466]: greater than 7.00.
With `Cc1ccc2cc(C(=O)N(C)[C@@H](CC(C)(C)F)C(=O)N3C[C@]4(C[C@H]3C#N)C(=O)Nc3ccccc34)[nH]c2n1` [Example 467], the pIC50 was greater than 7.00.
With `CC(C)C[C@@H](C(=O)N1C[C@]2(C[C@H]1C#N)C(=O)Nc1ccc(Cl)cc12)N(C)C(=O)c1cc2cccnc2[nH]1` [Example 468], the pIC50 is greater than 7.00.
With `Cc1ccc2cc(C(=O)N(C)[C@@H](CC(C)C)C(=O)N3C[C@]4(C[C@H]3C#N)C(=O)Nc3ccc(Cl)cc34)[nH]c2n1` [Example 469], the pIC50 is greater than 7.00.
The compound `CN(C(=O)c1cc2cccnc2[nH]1)[C@@H](CC(C)(C)F)C(=O)N1C[C@]2(C[C@H]1C#N)C(=O)Nc1ccc(Cl)cc12` [Example 470] showed a pIC50 greater than 7.00.
Compound `Cc1ccc2cc(C(=O)N(C)[C@@H](CC(C)(C)F)C(=O)N3C[C@]4(C[C@H]3C#N)C(=O)Nc3ccc(Cl)cc34)[nH]c2n1` [Example 471] had a pIC50 greater than 7.00.
Regarding `[2H]C([2H])([2H])N(C(=O)c1cc2c(F)cc(F)cc2[nH]1)[C@@H](CC(C)(C)F)C(=O)N1C[C@]2(C[C@H]1C#N)C(=O)Nc1cc(C(F)(F)F)ccc12` [Example 472, N—((S)-1-((3R,5′S)-5′-cyano-2-oxo-6-(trifluoromethyl)spiro[indoline-3,3′-pyrrolidin]-1′-yl)-4-fluoro-4-methyl-1-oxopentan-2-yl)-4,6-difluoro-N-(methyl-d3)-1H-indole-2-carboxamide], the negative-log IC50 (pIC50) was greater than 7.00.
Compound `CN(C(=O)C1(c2ccncc2)CC1)[C@@H](CC(C)(C)F)C(=O)N1C[C@]2(C[C@H]1C#N)C(=O)Nc1ccc(Cl)cc12` [Example 473, N—((S)-1-((3R,5′S)-5-chloro-5′-cyano-2-oxospiro[indoline-3,3′-pyrrolidin]-1′-yl)-4-fluoro-4-methyl-1-oxopentan-2-yl)-N-methyl-1-(pyridin-4-yl)cyclopropane-1-carboxamide] gave a negative-log IC50 (pIC50) greater than 7.00.
The compound `[2H]C([2H])([2H])N(C(=O)Cc1ccncc1)[C@@H](CC(C)(C)F)C(=O)N1C[C@]2(C[C@H]1C#N)C(=O)Nc1ccc(Cl)cc12` [Example 474] showed a pIC50 greater than 7.00.
As for `[2H]C([2H])([2H])N(C(=O)C1(c2ccncc2)CC1)[C@@H](CC(C)(C)F)C(=O)N1C[C@]2(C[C@H]1C#N)C(=O)Nc1ccc(Cl)cc12` [Example 475], the pIC50 was greater than 7.00.
`CN(C(=O)Cc1cccnc1)[C@@H](CC(C)(C)F)C(=O)N1C[C@]2(C[C@H]1C#N)C(=O)Nc1ccc(Cl)cc12` [Example 476] gave a pIC50 greater than 7.00.
As for `CN(C(=O)Cc1ccncc1)[C@@H](CC(C)(C)F)C(=O)N1C[C@]2(C[C@H]1C#N)C(=O)Nc1ccc(Cl)cc12` [Example 477], the pIC50 was greater than 7.00.
`CN(C(=O)C1(c2ccccn2)CC1)[C@@H](CC(C)(C)F)C(=O)N1C[C@]2(C[C@H]1C#N)C(=O)Nc1ccc(Cl)cc12` [Example 478] gave a pIC50 greater than 7.00.
As to `CN(C(=O)C1(c2cccnc2)CC1)[C@@H](CC(C)(C)F)C(=O)N1C[C@]2(C[C@H]1C#N)C(=O)Nc1ccc(Cl)cc12` [Example 479], the pIC50 is greater than 7.00.
Next, `CN(C(=O)C(F)(F)c1ccncc1)[C@@H](CC(C)(C)F)C(=O)N1C[C@]2(C[C@H]1C#N)C(=O)Nc1ccc(Cl)cc12` [Example 480]: greater than 7.00.
`CN(C(=O)C(F)(F)c1ccccn1)[C@@H](CC(C)(C)F)C(=O)N1C[C@]2(C[C@H]1C#N)C(=O)Nc1ccc(Cl)cc12` [Example 481]: the pIC50 was greater than 7.00.

The record behind these values is patent US12540141B2, “Spiropyrrolidine derived antiviral agents” (priority 2020, dated 2026).
